Results on 21 compounds are retold here after patent US5852018A, “Pharmaceutical piperazine compounds” (Xenova Limited, priority 1994, dated 1998).

Each structure is given as a SMILES string. Values joined by “and” are separate entries in the source; they are usually repeats but may differ in a detail not shown here. Identical values can stand only once.

The test system of data set [1] is AR 1.0 cells. Nature of the data set: Potentiation of doxorubicin toxicity (potentiation index) in AR 1.0 cells. Format: cell-based, mouse. The settings on record: four days.
Data set [2] concerns AR 1.0 cells. Nature of the data set: Proliferation assay with and without fixed concentration of doxorubicin (sulphorhodamine B). The settings on record: for IC50: four days. Format: cell-based, mouse. An excerpt: Compounds of formula A were examined for their ability to potentiate the toxicity of doxorubicin in AR 1.0 cells.
Data set [3] deals with AR 1.0 cells. Nature of the data set: Drug accumulation assay (tritiated daunorubicin) in MDR resistant AR 1.0 cells. The conditions noted are these: Mus musculus, DNR 2 μM; for IC50: 37° C., 1 hr; for Emax: 1 h, 100% = accumulation with 100 μM Verapamil, read-out: MAX accumulation (% 100 μm VRP). Format: cell-based. On the procedure: The EMT6 mouse mammary carcinoma cell line and the MDR resistant subline AR 1.0 were cultured in RPMI 1640 medium containing 10% foetal calf serum and 2 mM glutamine at 37° C. in 5% CO2 . Cells were passaged between 1 in 200 and 1 in 2000 in the case of the parental cell line and between 1 in 20 and 1 in 200 in the case of the MDR resistant subline, after trypsinisation (0.25% trypsin, 0.2 gl^-1, EDTA).
AR 1.0 cells were seeded into 96 well opaque culture plates (Canberra Packard). The assay medium contained a mixture of tritiated Daunorubicin (DNR), a cytotoxic agent, and unlabelled DNR (0.25μ Ci/ml; 2 μM). Compounds of formula A were serially diluted in assay medium over a range of concentrations from 100 nM to 100 μM. The cells were incubated at 37° C. for 1 hr before washing and counting of cell associated radioactivity. Each assay included a titration of the known resistance modifying agent Verapamil as positive control. Results were expressed as % maximum accumulation where 100% accumulation is that observed in the presence of 100 μM Verapamil.

The next data set relates to MDR cells. The settings on record: in vitro and in vivo; Cancer Res., 41, 1967-1972 (1981); cited from earlier work.
[4] abbreviates: Mus musculus, 96 h, compound alone, read-out: COMPOUND TOXICITY (IC50).
Where [5] appears, read: cytotoxic agent 1.00 μg/ml, 5760 min, read-out: TOXICITY WITH CYTOTOXIC AGENT (IC 50).
Where [6] appears, read: cytotoxic agent 0.50 μg/ml, 5760 min, read-out: TOXICITY WITH CYTOTOXIC AGENT (IC 50).

As to `COc1ccc(/C=c2/c(=O)[nH]/c(=C\c3ccccc3)c(=O)n2CC2CC2)cc1` [Compound 1454, (3Z,6Z)-3-Benzylidene-1-cyclopropylmethyl-6-(4-methoxybenzylidene)-2,5-piperazinedione], the “Potentiation Index” value in the data set with AR 1.0 cells [1] (Conc Comp 5 μM) came out at 10. In addition, the IC50 amounted to 5 µM in the data set on AR 1.0 cells [2] (setting [4]) and 10 µM in the data set with AR 1.0 cells [3].
As for `COC(=O)Cn1c(=O)/c(=C/c2ccccc2)[nH]c(=O)/c1=C/c1ccc(OC)cc1` [Compound 1486, Methyl (3Z,6Z)-3-benzylidene-6-(4-methoxybenzylidene)-2,5-dioxo-1-piperazinylacetate], the IC50 in the data set on AR 1.0 cells [2] (setting [4]) is 10 µM; in the data set on AR 1.0 cells [3], 50 µM.
Consider `COC(=O)Cn1c(=O)/c(=C/c2ccc(OC)cc2)[nH]c(=O)/c1=C/c1ccccc1` [Compound 1490, Methyl (3Z,6Z)-6-benzylidene-3-(4-methoxybenzylidene)-2,5-dioxo-1-piperazinylacetate], for which the IC50 in the data set with AR 1.0 cells [2] (setting [4]) was determined as 30 µM; in the data set with AR 1.0 cells [2] (setting [5]), 2 µM; in the data set with AR 1.0 cells [3], 30 µM. Besides, in the data set on AR 1.0 cells [3], the Emax amounted to 63.6%.
For the compound `COc1ccc(/C=c2\[nH]c(=O)/c(=C/c3ccccc3)n(CC3CC3)c2=O)cc1` [Compound 1500], in the data set with AR 1.0 cells [1] (Conc Comp 3 μM), the “Potentiation Index” value turned out to be 10. The IC50 in the data set with AR 1.0 cells [2] (setting [4]) stood at 20 µM; in the data set on AR 1.0 cells [3], 15 µM. In the data set on AR 1.0 cells [3], the Emax was determined as 91.3%.
On to `COc1ccc(/C=c2/c(=O)[nH]/c(=C\c3ccccc3)c(=O)n2CC(=O)N2CCCC2)cc1` [Compound 1521, N,N-Tetramethylene-(3Z,6Z)-3-benzylidene-6-(4-methoxybenzylidene)-2,5-dioxo-1-piperazinylacetamide], for which the IC50 in the data set with AR 1.0 cells [2] (setting [4]) is 70 µM. Besides, in the data set on AR 1.0 cells [3], the Emax came to 65.2% and the IC50 worked out at 30 µM.
On to `CCN(CC)C(=O)Cn1c(=O)/c(=C/c2ccc(OC)cc2)[nH]c(=O)/c1=C/c1ccccc1` [Compound 1527, N,N-Diethyl-(3Z,6Z)-6-benzylidene-3-(4-methoxybenzylidene)-2,5-dioxo-1-piperazinylacetamide], for which the IC50 amounted to 40 µM in the data set on AR 1.0 cells [2] (setting [4]), 1.5 µM with AR 1.0 cells [2] (setting [5]) and 40 µM with AR 1.0 cells [3]. Besides, the Emax in the data set with AR 1.0 cells [3] amounted to 73.9%.
On to `Cn1c(=O)/c(=C/c2ccccc2)n(Cc2ccccc2)c(=O)/c1=C/c1ccccc1` [Compound 1779, (3Z,6Z)-1-Benzyl-3,6-dibenzylidene-4-methyl-2,5-piperazinedione], for which, in the data set with AR 1.0 cells [1] (Conc Comp 5 μM), the “Potentiation Index” value came to 40. The IC50 turned out to be 15 µM in the data set with AR 1.0 cells [2] (setting [4]), 0.8 µM in the data set with AR 1.0 cells [2] (setting [5]) and 15 µM in the data set on AR 1.0 cells [3].
With `CC(=O)OCCn1c(=O)/c(=C/c2ccccc2)n(C)c(=O)/c1=C/c1ccccc1` [Compound 1817, (3Z,6Z)-1-(2-Acetoxyethyl)-3,6-dibenzylidene-4-methyl-2,5-piperazinedione], the IC50 in the data set on AR 1.0 cells [2] (setting [4]) turned out to be 20 µM; in the data set on AR 1.0 cells [2] (setting [6]), 1.5 µM; with AR 1.0 cells [3] it was 20 µM.
Consider `CC(=O)OCCOc1n/c(=C\c2ccccc2)c(=O)n(C)/c1=C\c1ccccc1` [Compound 1818, (3Z,6Z)-5-(2-Acetoxyethoxy)-3,6-dibenzylidene-1-methyl-3,6-dihydro-2-pyrazinone], for which the IC50 in the data set on AR 1.0 cells [2] (setting [4]) came out at 1.5 µM; in the data set on AR 1.0 cells [2] (setting [6]) it was 0.8 µM; with AR 1.0 cells [3] it was 7 µM.
On to `Cn1c(=O)/c(=C/c2ccccc2)nc(OCC2OCCO2)/c1=C/c1ccccc1` [Compound 1822, (3Z,6Z)-3,6-Dibenzylidene-1-methyl-2-oxo-1,2,3,6-tetrahydro-5-pyrazinyloxyacetaldehyde ethylene acetal], for which the IC50 is 5 µM in the data set on AR 1.0 cells [2] (setting [4]) and 9 µM with AR 1.0 cells [3].
As to `Cn1c(=O)/c(=C/c2ccccc2)n(CC2OCCO2)c(=O)/c1=C/c1ccccc1` [Compound 1823, (3Z,6Z)-3,6-Dibenzylidene-4-methyl-2,5-dioxo-1-piperazinylacetaldehydeethylene acetal], the “Potentiation Index” value in the data set with AR 1.0 cells [1] (Conc Comp 3 μM) is given as 20. For the same compound, the IC50 was 30 µM in the data set on AR 1.0 cells [2] (setting [4]), 0.7 µM with AR 1.0 cells [2] (setting [6]) and 9 µM with AR 1.0 cells [3].
As for `Cn1c(=O)/c(=C/c2ccccc2)nc(OCCCN2C(=O)c3ccccc3C2=O)/c1=C/c1ccccc1` [Compound 1824, (3Z,6Z)-3,6-Dibenzylidene-1-methyl-5-(3-phthalimidopropoxy)-3,6-dihydro-2-pyrazinone], in the data set on AR 1.0 cells [1] (Conc Comp 3 μM), the “Potentiation Index” value is 60 and 80. Besides, the results for the IC50 with AR 1.0 cells [2] (setting [4]) and with AR 1.0 cells [3] were 7 µM and 3 µM, respectively.
Regarding `C=CCn1c(=O)/c(=C/c2ccccc2)n(C)c(=O)/c1=C/c1ccccc1` [Compound 1825, (3Z,6Z)-1-Allyl-3,6-dibenzylidene-4-methyl-2,5-piperazinedione], the “Potentiation Index” value in the data set with AR 1.0 cells [1] (Conc Comp 3 μM) worked out at 15. Also, the IC50 in the data set with AR 1.0 cells [2] (setting [4]) is 20 µM; in the data set with AR 1.0 cells [2] (setting [6]) it was 1.5 µM; in the data set on AR 1.0 cells [3], 10 µM.
Taken in the same sequence, the figures for `COc1ccc(/C=c2/c(=O)n(CC3CC3)/c(=C\c3ccccc3)c(=O)n2C)cc1` [Compound 1833] were 20, 9 µM, 1 µM and 12 µM.
With `CCCCCOc1n/c(=C\c2ccccc2)c(=O)n(C)/c1=C\c1ccccc1` [Compound 1855], the IC50 with AR 1.0 cells [2] (setting [4]) worked out at 6 µM; in the data set with AR 1.0 cells [2] (setting [6]), 0.8 µM; in the data set on AR 1.0 cells [3], 10 µM.
For `Cn1c(=O)/c(=C/c2ccccc2)nc(OCN2C(=O)c3ccccc3C2=O)/c1=C/c1ccccc1` [Compound 1905, (3Z,6Z)-3,6-Dibenzylidene-1-methyl-5-phthalimidomethoxy-3,6-dihydro-2-pyrazinone], the Emax in the data set with AR 1.0 cells [3] is 29%.
The same measure, in the same setting: as for `O=c1/c(=C/c2ccccc2)n(Cc2ccccc2)c(=O)/c(=C/c2ccccc2)n1Cc1ccccc1` [Compound 1906, (3Z,6Z)-1,4-Dibenzyl-3,6-dibenzylidene-2,5-piperazinedione], the figure is 34%.
In the case of `Cn1c(=O)/c(=C/c2ccccc2)n(Cc2cccc([N+](=O)[O-])c2)c(=O)/c1=C/c1ccccc1` [Compound 1936, (3Z,6Z)-3,6-Dibenzylidene-1-methyl-4-(3-nitrobenzylidene)-2,5-piperazinedione], in the data set on AR 1.0 cells [3], the IC50 was 2 µM.
On the same count and under the same terms, as for `Cn1c(=O)/c(=C/c2ccccc2)n(Cc2ccc([N+](=O)[O-])cc2)c(=O)/c1=C/c1ccccc1` [Compound 1939, (3Z,6Z)-3,6-Dibenzylidene-1-methyl-4-(4-nitrobenzylidene)-2,5-piperazinedione], the figure is 4 µM.
Consider `COc1ccc(CCN(C)CCCC(C#N)(c2ccc(OC)c(OC)c2)C(C)C)cc1OC` (centres unmarked) [Verapamil], for which the “sensitisation of MDR cells to Vinca alkaloids” value in the data set with MDR cells is “sensitise MDR cells to Vinca alkaloids in vitro and in vivo”.
Regarding `COc1cccc2c1C(=O)c1c(O)c3c(c(O)c1C2=O)C[C@@](O)(C(=O)CO)C[C@@H]3O[C@H]1C[C@H](N)[C@H](O)[C@H](C)O1` [doxorubicin, reference compound], the “toxicity of doxorubicin alone to AR 1.0 cells” value in the data set with AR 1.0 cells [2] (fixed concentration 0.5-1 μM) is recorded as “non-toxic”.
